Measurements reported in paper PMC7292393 (PLoS ONE, 2020).
Values joined by “and” are separate entries in the source; they are usually repeats but may differ in a detail not shown here. Identical values can stand only once.

Columns and labels:
[1] = target: T1, human SUMO1 (Homo sapiens, UniProt P63165); assay: Surface plasmon resonance (SPR) primary screen; type: binding; conditions: for SPR Screens 1° / %RUmax: 500 μM flavonoid in DMSO; for SPR Screens 1°: cut-off of %RUmax of ~15; for %RUmax: SPR primary screen, (Mean RU/RUmax)*100; for interaction in SPR primary screen: 500 μM, %RUmax above threshold of ~15%;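 for all read-outs here: recombinant human SUMO1 amine-coupled to a sensor chip, blank activated and quenched reference flow cell, flavonoids injected 2 min then 1 min dissociation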
T1 construct: encoding amino acids 1–97 of mature human SUMO1; host or cells: E. coli BL21 Rosetta (DE3)

[2] = target: T1, human SUMO1; assay: Differential scanning fluorimetry (DSF) thermal shift; type: binding; set-up: key to DSF Tm SUMO1 + Flavonoid (class): UF: unfolded protein; ND: melting curve could not be determined; conditions: 2 μM SUMO1, 300 μM flavonoid; for DSF Tm SUMO1 + Flavonoid: mean and SEM, n = 5, SUMO1 + DMSO 59.63 ± 0.03
[3] = target: T1, human SUMO1; assay: Native-PAGE mobility shift; type: binding; conditions: SUMO1 ~40 μM, 300 μM flavonoid
Protocol: Recombinantly purified proteins (Saccharomyces cerevisiae SMT3, Saccharomyces cerevisiae Ulp1, and human SUMO1) were incubated with flavonoids (or DMSO vehicle control) for 30 min to 1 hr at 4°C. Samples were loaded onto 4–20% or 7.5% Mini-PROTEAN TGX Precast Protein Gels (Bio-Rad, Hercules, CA) and were run […] at 95 V for 4 hr 30 min at 4°C using a standard SDS-free loading buffer (pH 8.0) and Tris-glycine running buffer (pH 8.3). Immediately after electrophoresis, the gel was imaged to track migration of bright yellow flavonoid. Following this step, the gel was stained with Bio-Safe Coomassie (Bio-Rad, Hercules, CA) to detect the proteins.

[4] = target: T1, human SUMO1; assay: SPR secondary screen / dose-dependent binding; set-up: key to SPR Screens 2°: ✓: dose-dependent saturation kinetics; ×: no indication of saturation kinetics; conditions: for saturation binding in SPR secondary screen: Fig 2A-H; for SPR Screens 2°: five concentrations 31.25-500 μM; for Kd: one-site hyperbola fit, 31.25-500 μM flavonoid, Fig 2A-C, read-out: Kd (SPR secondary screen)
[5] = Precipitation in NMR samples; type: physicochemical; conditions: at 400 μM, dissolved in DMSO-d6, NMR sample
Protocol: All NMR experiments for 2D ^1H-^15N HSQC spectra were performed at 17°C on a Varian VNMR 500 MHz spectrometer equipped with a 5mm cryogenic triple resonance probe. Complex points 1024 × 128 and spectral widths of 14 × 38 ppm were used to record all the spectra. […] DMSO-d6 used as a cosolvent caused a slight shift (< ~0.8ppm) of resonance peaks. Therefore resonance assignments for ^15N-labeled SUMO1 residues were compared to the DMSO control treatment and normalized by a common factor. […] The resonance peak assignments were performed using data deposited in the Biological Resonance Data Bank (BMRB) under 25576 as reference. Chemical shift changes were characterized by calculating a weighted chemical shift difference as previously described. […] The chemical shift perturbation data from this work are deposited under BMRB ID 50128.

T1 sequence (P63165 1-97): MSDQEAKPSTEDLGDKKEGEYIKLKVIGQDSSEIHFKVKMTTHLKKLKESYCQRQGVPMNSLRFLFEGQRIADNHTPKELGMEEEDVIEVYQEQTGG

| Compound | %RUmax [1] [%] | DSF Tm SUMO1 + Flavonoid [2] [°C] | electrophoretic mobility shift of human SUMO1 [3] | saturation binding in SPR secondary screen [4] | SPR Screens 2° [4] | SPR Screens 1° [1] | effect on DSF thermogram / thermal stability of SUMO1 [2] | interaction in SPR primary screen [1] | Kd [4] | DSF Tm SUMO1 + Flavonoid (class) [2] | precipitation in NMR sample [5] |
| --- | --- | --- | --- | --- | --- | --- | --- | --- | --- | --- | --- |
| O=c1cc(-c2ccc(O)c(O)c2)oc2cc(O)cc(O)c12 [Luteolin] | -47.8 | 51.89 ± 0.68 | unable to detect a similar gel shift |  |  | × (low or no binding activity) | significant thermal destabilization or unfolding |  |  |  |  |
| Cc1c(O)cc2oc(-c3ccc(O)c(O)c3)c(O)c(=O)c2c1O [Pinoquercetin] | 143.4 |  |  | failed to exhibit saturation binding | × | ✓ (%RUmax with binding activity above cut-off) |  | interacted with SUMO1 in the primary screen |  |  |  |
| O=c1c(O)c(-c2ccc(O)c(O)c2)oc2cc(O)cc(O)c12 [Quercetin, 3,3',4',5,7-pentahydroxyflavone] | 14.5 |  |  | exhibited binding that approached saturation | ✓ | ✓ (%RUmax with binding activity above cut-off) | cause unfolding of human SUMO1 | interacted with SUMO1 in the primary screen | 41.7 µM and ~42 µM | UF | Precipitation |
| O=c1c(O)c(-c2ccc(O)cc2)oc2cc(O)cc(O)c12 [Kaempferol, 3,4′,5,7-tetrahydroxyflavone] | 12.6 | 60.28 ± 0.09 |  |  |  | × (low or no binding activity) | little or no effect |  |  |  | Precipitation |
| C[C@@H]1O[C@@H](Oc2c(-c3ccc(O)c(O)c3)oc3cc(O)cc(O)c3c2=O)[C@H](O)[C@H](O)[C@H]1O [Quercitrin] | 14.2 | 54.28 ± 0.19 |  |  |  | × (low or no binding activity) | significant thermal destabilization or unfolding |  |  |  |  |
| O=C1C[C@@H](c2ccc(O)cc2)Oc2cc(O)cc(O)c21 [Naringenin] | 27.5 | 59.24 ± 0.13 |  | failed to exhibit saturation binding | × | ✓ (%RUmax with binding activity above cut-off) |  | interacted with SUMO1 in the primary screen |  |  |  |
| O=C(/C=C/c1ccc(O)cc1)c1ccc(O)cc1O [Isoliquiritigenin] |  |  |  |  | ✓ |  |  | interacted with SUMO1 in the primary screen | ~196 µM |  |  |
| O=c1c(O[C@@H]2O[C@H](CO)[C@@H](O)[C@H](O)[C@H]2O)c(-c2ccc(O)c(O)c2)oc2cc(O)cc(O)c12 [Quercetin 3-β-D-glucoside] | 21.3 | 56.95 ± 0.28 |  | failed to exhibit saturation binding | × | ✓ (%RUmax with binding activity above cut-off) |  | interacted with SUMO1 in the primary screen |  |  |  |
| COc1cc(O)c(Cc2ccccc2O)c(O)c1C(=O)/C=C/c1ccccc1 [C-benzylated chalcone] | -5.3 |  |  |  |  | × (low or no binding activity) |  |  |  |  |  |

Further lines, with some results ahead:

| %RUmax [1] [%] | DSF Tm SUMO1 + Flavonoid [2] [°C] | electrophoretic mobility shift of human SUMO1 [3] | saturation binding in SPR secondary screen [4] | SPR Screens 2° [4] | Compound | SPR Screens 1° [1] | effect on DSF thermogram / thermal stability of SUMO1 [2] | interaction in SPR primary screen [1] | Kd [4] | DSF Tm SUMO1 + Flavonoid (class) [2] | precipitation in NMR sample [5] |
| --- | --- | --- | --- | --- | --- | --- | --- | --- | --- | --- | --- |
| 5.4 | 58.93 ± 0.02 |  |  |  | C[C@@H]1O[C@@H](O[C@H]2[C@H](Oc3cc(O)c4c(c3)O[C@H](c3ccc(O)cc3)CC4=O)O[C@H](CO)[C@@H](O)[C@@H]2O)[C@H](O)[C@H](O)[C@H]1O [Naringin] | × (low or no binding activity) |  |  |  |  |  |
| 8.5 | 59.94 ± 0.07 |  |  |  | C[C@@H]1O[C@@H](O[C@H]2[C@H](Oc3cc(O)c(C(=O)CCc4ccc(O)cc4)c(O)c3)O[C@H](CO)[C@@H](O)[C@@H]2O)[C@H](O)[C@H](O)[C@H]1O [Naringin dihydrochalcone] | × (low or no binding activity) |  |  |  |  |  |
| 48.0 | 33.28 ± 0.15 |  | failed to exhibit saturation binding | × | O=c1c(-c2ccc(O)c(O)c2)coc2cc(O)ccc12 [3’,4’,7-Trihydroxy-isoflavone, 3’,4’,7-Trihydroxyisoflavone] | ✓ (%RUmax with binding activity above cut-off) | significant thermal destabilization or unfolding | interacted with SUMO1 in the primary screen |  |  |  |
| 74.2 |  |  | failed to exhibit saturation binding | × | O=C(/C=C/c1ccc(O)c(O)c1)c1ccc(O)cc1O [Butein] | ✓ (%RUmax with binding activity above cut-off) |  | interacted with SUMO1 in the primary screen |  |  |  |
